This note sets out measurements from patent US8268874B2, “Anti-cancer compounds, synthesis thereof, and methods of using same” (University of Notre Dame du Lac, priority 2008, dated 2012).

Like-named read-outs stand apart in the source and are kept apart here.

In test [1] the test system is human breast cancer cell line MCF-7. Description: NCI anti-cancer drug screen, growth inhibition of MCF-7 cells. In kind it is cell-based. The source says: (§1) For additional details pertaining to the assay, see, for example, Shoemaker, R. H., The NCI60 Human Tumour Cell line Anticancer Drug Screen, Nature Reviews, 6: 813-823, 2006, the disclosure of which is hereby incorporated by reference in its entirety.
(§2) Briefly, the cell lines comprising the National Cancer Institute Anti-cancer Drug Screen panel were obtained and processed as described previously. After an initial acquisition, in vitro expansion was followed by cryopreservation of a large number of master stock samples, for serial rethawing at 20-passage intervals. The parental cells included the small cell lung carcinoma cell line UMCC-1, the human leukemia cell line HL-60, estrogen receptor-positive MCF7 and ZR-75B human breast carcinoma cells, and estrogen receptor-negative MDA-MB231 human breast carcinoma cells. The parental cells were grown in monolayers or in suspension in Eagle's minimum essential medium containing 10% fetal bovine serum, 2 mM L-glutamine, 100 units/ml penicillin, and 100 μg/ml streptomycin in 5% CO2 at 37° C.
(§3) The current version of COMPARE is configured to calculate pairwise correlations with the log10 of one of the specific National Cancer Institute cell line activity parameters GI50, TGI, or LC50. The GI50 is the National Cancer Institute designation for a time zero-corrected IC50 value and is defined as the concentration of an agent that causes a 50% growth inhibition. Thus, log10 (GI50 values) for a seed or probe compound is correlated with the corresponding data from each compound in a database.

The test system of test [2] is human leukemia cell line HL-60. Briefly: In vitro anti-cancer activity against HL-60 cells. The format is cell-based. The settings on record: Table 1.
Description: as §1, §2, §3

For test [3], the system named is vincristine-resistant leukemia cell line, HL-60 VCR, that overexpresses p-glycoprotein. Briefly: In vitro anti-cancer activity against HL-60 VCR cells. The format is cell-based, human. The settings on record: Table 1, p-glycoprotein overexpressing.
Description: as §1, §2, §3

In a further test the test system is M. tuberculosis H37Rv. Briefly: In vitro anti-tuberculosis activity, standard GAST assay. The settings on record: in words. The format is cell-based, Mycobacterium tuberculosis.
The test system of another test is PC-3 (Prostate). Description: NCI anti-cancer drug screen, growth inhibition of PC-3 cells. In kind it is cell-based. The conditions noted are these: Homo sapiens; for IC50: Table 5.
Description: as §1, §2, §3
Various analogs of the oxazole triazole scaffold were prepared and tested for their anti-cancer activity in various cellular assays (testing was done as described previously).

A further test deals with RXF 393 (Renal). Description: NCI anti-cancer drug screen, growth inhibition of RXF 393 cells. The settings on record: Homo sapiens, Table 5. The format is cell-based.
Description: as §1, §2
(§4) The current version of COMPARE is configured to calculate pairwise correlations with the log10 of one of the specific National Cancer Institute cell line activity parameters GI50, TGI, or LC50. […]

The test system of the next test is CAKI-1 (Renal). Briefly: NCI anti-cancer drug screen, growth inhibition of CAKI-1 cells. The format is cell-based. The settings on record: Homo sapiens, Table 5.
Description: as §1, §2, §4

A further test deals with SR (Leukemia). Description: NCI anti-cancer drug screen, growth inhibition of SR cells. The conditions noted are these: Homo sapiens, Table 5. In kind it is cell-based.
Description: as §1, §2, §4

For test [4], the system named is multiple cell lines of leukemia. Briefly: NCI assay, multiple leukemia cell lines (FIG. 2). In kind it is cell-based, human. The settings on record: applied at nanomolar concentrations.
Description: FIG. 2 illustrates the potent anti-cancer activity of various compounds disclosed herein in the NCI assay using multiple leukemia cell lines, in accordance with various embodiments.
as §1

For test [5], the system named is multiple colon cancer cell lines. Description: NCI assay, multiple colon cancer cell lines (FIG. 3). The conditions noted are these: applied at nanomolar concentrations. In kind it is cell-based, human.
Description: FIG. 3 illustrates the potent anti-cancer activity of various compounds disclosed herein in the NCI assay using multiple colon cancer cell lines, in accordance with various embodiments.
as §1

The next test concerns cell cycle. Description: Cell cycle arrest (FIG. 5). The format is cell-based. The text has this:
FIG. 5 illustrates cell cycle arrest showing G2/M-phase arrest in cells treated with 1,2,3-triazole 9c (ND-6732), in accordance with various embodiments.
Without being bound by theory, it is believed that the anti-cancer activity of various disclosed compounds disclosed herein is due to antimitotic activity.

Setting [6] is: Homo sapiens, MCF7, Table 2, SAR truncation of aryl ether moiety, read-out: MCF7 IC50.
Setting [7] is: Homo sapiens, MCF7, Table 5, read-out: IC50 MCF-7 (Breast).
Where [8] appears, read: MCF7, Table 1, human breast cancer cell line MCF-7, read-out: IC50 MCF-7.
The mark [9] stands for this setting: Homo sapiens, MCF7, Table 3, SAR truncation of aryl carboxamide moiety, read-out: MCF7 IC50.
The mark [10] stands for this setting: Homo sapiens, MCF7, read-out: IC50 MCF-7 (Breast).

For the molecule `COc1cc2c(cc1O)CC[C@@H]1[C@@H]2CC[C@]2(C)[C@@H](O)CC[C@@H]12` [2-methoxyestradiol], the IC50 in test [1] (Table 1, human breast cancer cell line MCF-7, read-out: IC50 MCF-7) came out at 1300 nM; in [2], 9150 nM; in [3] it was 48000 nM.

In the case of `O=C(OCc1ccccc1)[C@@H]1COC(c2ccccc2OCc2ccccc2)=N1` [Compound 2], the anti-tuberculosis activity entry with M. tuberculosis H37Rv is “exhibited anti-tuberculosis activity with potency similar to that of Mycobactin S”.

Take `COc1ccc(CNC(=O)c2coc(-c3cccc(Cl)c3)n2)cc1OC` [Compound 3]: in the test with M. tuberculosis H37Rv, the anti-tuberculosis activity result was “active against M. tuberculosis”.

As for `C#CCNC(=O)c1coc(-c2ccccc2)n1` [Compound 8a], the IC50 in [1] (setting [6]) was above 20000 nM.

Consider `O=C(NCc1cn(Cc2ccccc2)nn1)c1coc(-c2ccccc2)n1` [Compound 9a], for which the half-maximal inhibitory concentration (IC50) in [1] (setting [6]) is 4000 nM.

As for `O=C(NCc1cn(Cc2cccc(Oc3ccccc3)c2)nn1)c1coc(-c2ccccc2)n1` [Compound 9c], the GI50 in [1] (Homo sapiens, MCF7) was found to be 302 nM; in the test on PC-3 (Prostate), 504 nM. The IC50 came to 500 nM in test [1] (setting [6]); 302 nM in test [1] (setting [7]); 500 nM in [1] (setting [8]); 7900 nM in [2]; 12200 nM in test [3] (Homo sapiens, HL60/VCR); 504 nM with PC-3 (Prostate). Also, the results for the IC50 with RXF 393 (Renal), with CAKI-1 (Renal) and with SR (Leukemia) were 299 nM, 392 nM and 484 nM, respectively. Moreover, the “growth inhibition of multiple cell lines of leukemia” value in [4] is reported as at least 50%. In [5], the “growth inhibition of multiple cell lines of colon cancer” value is recorded as at least 50%. Also, in the test on cell cycle, the cell cycle arrest entry is listed as “cell cycle arrest at the G2M phase of mitosis”.

In the case of `O=C(NCc1cn(Cc2cccc(Oc3ccccc3)c2)nn1)c1ccccn1` [Compound 14], the IC50 in test [1] (setting [9]) is 70 nM.

For the molecule `O=C(NCc1cn(Cc2cccc(Oc3ccccc3)c2)nn1)c1cocn1` [Compound 15], the IC50 in test [1] (setting [9]) is 1000 nM.

Take `O=C(NCc1cn(Cc2cccc(Oc3ccccc3)c2)nn1)c1ccccc1` [Compound 16]: the IC50 in [1] (setting [9]) was determined as 200 nM.

With `CC(=O)NCc1cn(Cc2cccc(Oc3ccccc3)c2)nn1` [Compound 17], the IC50 in test [1] (setting [9]) worked out at 6000 nM.

As for `COc1ccc(-c2nc(C(=O)Nc3cn(Cc4ccc(Oc5ccccc5)cc4)nn3)co2)cc1` [ND-007887], the results for the IC50 (in test [1] (setting [7]); in the test with PC-3 (Prostate)) were 937 nM and 1250 nM, respectively.

For `COc1ccc(-c2nc(CNCc3cn(Cc4ccc(Oc5ccccc5)cc4)nn3)co2)cc1` [ND-008169], the figures for the IC50 (in test [1] (setting [7]); in the test on PC-3 (Prostate)) were 3000 nM and 10000 nM, respectively.

Turning to `CCCCCCCCn1cc(CNCc2coc(-c3ccc(OC)cc3)n2)nn1` [ND-008171], the IC50 in test [1] (setting [7]) is 15000 nM; in the test with PC-3 (Prostate) it was above 100000 nM.

With `COc1ccc(-c2ccc(CNCc3cn(Cc4ccc(Oc5ccccc5)cc4)nn3)s2)cc1` [ND-008174], the results for the IC50 (in [1] (setting [7]); in the test with PC-3 (Prostate)) were 3000 nM and 10000 nM, respectively.

For the molecule `CC(C)(C)[Si](C)(C)Oc1cccc(Cn2cc(CNC(=O)c3coc(-c4ccc(Cl)cc4)n3)nn2)c1` [ND-008183], the IC50 in test [1] (setting [10]) is 13000 nM; with PC-3 (Prostate) it was above 50000 nM.

As to `O=C(NCc1cn(Cc2cccc(Oc3ccccc3)c2)nn1)c1coc(-c2ccc(Cl)cc2)n1` [ND-008186], the IC50 in test [1] (setting [7]) is 4000 nM; in the test on PC-3 (Prostate), 2400 nM.

As for `Cc1ccc(Cn2cc(CNC(=O)c3coc(-c4ccc(C)cc4)n3)nn2)cc1` [ND-008465], the figures for the IC50 (in test [1] (setting [7]); in the test on PC-3 (Prostate)) were 8000 nM and 20000 nM, respectively.

On to `Cc1ccc(-c2nc(C(=O)NCc3cn(Cc4cccc(Oc5ccccc5)c4)nn3)co2)cc1` [ND-008467], for which the IC50 in test [1] (setting [7]) amounted to 300 nM; with PC-3 (Prostate) it was 1000 nM.

Regarding `Cc1ccc(-c2nc(C(=O)NCc3cn(Cc4cccc(O[Si](C)(C)C(C)(C)C)c4)nn3)co2)cc1` [ND-008468], the IC50 in [1] (setting [10]) amounted to 15000 nM; in the test with PC-3 (Prostate), 20000 nM.

`CCCCCCCCn1cc(CNC(=O)c2coc(-c3ccc(C)cc3)n2)nn1` [ND-008469]: the IC50 in [1] (setting [7]) was 20000 nM; in the test on PC-3 (Prostate), above 20000 nM.

`Cc1ccc(-c2nc(C(=O)NCc3cn(C45CC6CC(CC(C6)C4)C5)nn3)co2)cc1` [ND-008470]: the IC50 (in [1] (setting [7]); with PC-3 (Prostate)) was above 20000 nM throughout.

On to `O=C(NCc1cn(C23CC4CC(CC(C4)C2)C3)nn1)c1coc(-c2ccc(Cl)cc2)n1` [ND-008471], for which the IC50 (in test [1] (setting [7]); with PC-3 (Prostate)) was above 20000 nM throughout.

With `CC(=O)NCc1cn(Cc2cccc(Oc3ccccc3)c2)nn1` [ND-008492], the figures for the IC50 (in test [1] (setting [7]); with PC-3 (Prostate)) were 6000 nM and 17000 nM, respectively.

`OCc1cn(Cc2cccc(Oc3ccccc3)c2)nn1` [ND-008493]: the IC50 (in test [1] (setting [7]); in the test with PC-3 (Prostate)) was above 20000 nM each time.

Regarding `O=C(NCc1cn(Cc2cccc(Oc3ccccc3)c2)nn1)c1ccccn1` [ND-008504], the IC50 worked out at 150 nM in test [1] (setting [7]) and 300 nM in the test with PC-3 (Prostate).

On to `O=C(NCc1cn(Cc2cccc(Oc3ccccc3)c2)nn1)c1cocn1` [ND-008505], for which the IC50 (in [1] (setting [7]); in the test with PC-3 (Prostate)) was 1000 nM throughout.

For the molecule `O=C(NCc1cn(Cc2cccc(Oc3ccccc3)c2)nn1)c1ccccc1` [ND-008506], the IC50 was 200 nM in test [1] (setting [7]) and 500 nM in the test with PC-3 (Prostate).

Regarding `CC[C@]1(O)C[C@H]2CN(CCc3c([nH]c4ccccc34)[C@@](C(=O)OC)(c3cc4c(cc3OC)N(C=O)[C@H]3[C@@](O)(C(=O)OC)[C@H](OC(C)=O)[C@]5(CC)C=CCN6CC[C@]43[C@@H]65)C2)C1` [vincristine], the 50% inhibitory concentration (IC50) is 200 nM in [1] (setting [8]); 570 nM in test [2]; above 100000 nM in test [3] (Homo sapiens, HL60/VCR).

For Mycobactin S [reference compound], the anti-tuberculosis activity result with M. tuberculosis H37Rv was “exhibits anti-tuberculosis activity”.

Usually IC50 stands for the concentration at which inhibition is half-maximal. One may read the GI50 as the concentration at which growth is held to half of that of the control. Lower therefore signals greater sensitivity of the cells.
